How the values were obtained:
[1] = Hygroscopicity test (25° C., humidity 75%, 24 h); assay type: physicochemical; settings: for Rate of moisture absorption: 1 g sample, temperature of 25° C., humidity of 75%; for hygroscopicity (conclusion in words from the hygroscopicity test): 25° C., humidity 75%
Experimental: Hygroscopicity test. Test Conditions: watch glasses were placed in the environment at the temperature of 25° C. and the humidity of 75% for 24 h, then for each of the following samples, 1 g was weighed, and the weighted samples were quickly placed in the environment at the temperature of 25° C. and the humidity of 75% for 24 h to absorb moisture sufficiently.

[2] = at 65%-85% RH; cited from earlier work

Compound	Rate of moisture absorption ([1]; disodium salt) [%]	hygroscopicity (conclusion in words from the hygroscopicity test) ([1]; disodium salt)	also measured
O=C(O)c1cc(C(=O)O)c2c(n1)C(=O)C(=O)c1cc(C(=O)O)[nH]c1-2.[Na].[Na] [Crystal form I, pyrroloquinoline quinone disodium salt]	0	not hygroscopic	–
O=C(O)c1cc(C(=O)O)c2c(n1)C(=O)C(=O)c1cc(C(=O)O)[nH]c1-2.[Na].[Na] [Crystal form II, pyrroloquinoline quinone disodium salt]	0.30	–	–
O=C(O)c1cc(C(=O)O)c2c(n1)C(=O)C(=O)c1cc(C(=O)O)[nH]c1-2.[Na].[Na] [Crystal form III, pyrroloquinoline quinone disodium salt]	0	not hygroscopic	–
O=C(O)c1cc(C(=O)O)c2c(n1)C(=O)C(=O)c1cc(C(=O)O)[nH]c1-2.[Na] [Crystal form IV, pyrroloquinoline quinone monosodium salt]	–	–	Rate of moisture absorption [1]: 0%; hygroscopicity (conclusion in words from the hygroscopicity test) [1]: not hygroscopic
O=C(O)c1cc(C(=O)O)c2c(n1)C(=O)C(=O)c1cc(C(=O)O)[nH]c1-2.[Na].[Na] [Crystal form of the disodium salt in CN201080031945] [pyrroloquinoline quinone disodium salt, reference compound]	0.85	–	hygroscopicity (conclusion in words from the hygroscopicity test) ([1]; listed as crystal form in CN201080031945, disodium salt): strongest hygroscopicity
O=C(O)c1cc(C(=O)O)c2c(n1)C(=O)C(=O)c1cc(C(=O)O)[nH]c1-2.[Na] [crystal form A in CN201210452297.6, pyrroloquinoline quinone sodium salt]	–	–	hygroscopicity [2]: less than 3%
